In assay [1] the test system is two-way human mixed lymphocyte response (human PBL). Briefly: Two-way human mixed lymphocyte reaction (MLR), 3H-thymidine incorporation. Type of assay: cell-based. As for the experimental part:
Preparation of human peripheral blood leukocyte (PBL) suspensions. Human peripheral blood suspensions were prepared from Leukotrap blood filters as follows: Leukotrap filters containing processed leukocytes from random, unrelated blood donors were obtained from the Indian River Blood Bank (Vero Beach, Fla.). Buffy-coat blood cell suspensions were recovered by reverse-flow phosphate-buffered saline purging and centrifugation for 15 minutes at 475× g. Buffy coats were removed, and 5 ml of the suspension was layered onto 5 ml of Histopaque gradient material. The Histopaque gradients were centrifuged at 475× g for 30 minutes. Lymphocytes were removed from the Histopaque-medium interface, and washed twice with 10 ml of PBS (Dulbecco's phosphate-buffered saline without CaCl2 and MgCl2.6H2 O). The final cell pellet was resuspended in TCM, and the cell concentration adjusted to 2×10^6 cells/ml.
Two way mixed lymphocyte reaction (MLR). The immunosuppressive properties of mycalamide A were evaluated using the two-way MLR, utilizing murine splenocytes and human PBL. For the murine MLR, splenocytes from C57Bl/6J and BALB/c mice were prepared as described above, and a volume of […] of each cell suspension was added together to test and control wells of microtiter plates. Wells containing 0.20 ml of each cell suspension alone served as controls.
Dilutions of the drug to be tested were prepared in absolute EtOH and further diluted to the appropriate concentration in TCM and added directly to the wells containing splenocyte combinations. Additional solvent (EtOH) control wells were also prepared by adding the equivalent percentage of EtOH to each culture well. Plates were incubated at 37° C. in a 5% CO2 humidified atmosphere for 88 hours. Following the incubation, 1.0 μCi of ^3 H-thymidine was added to each well, and the plates were returned to the incubator for 5 hours. The contents of each well were harvested onto glass-fiber filter strips, and the incorporation of ^3 H-thymidine was determined by a liquid scintillation counter. Similar conditions were utilized for MLR cultures using human peripheral blood lymphocytes prepared from unrelated donors as described above, with the exception that the initial incubation and subsequent ^3 H-thymidine pulse times were different (114 hours for initial incubation followed by a 6-hour incubation with ^3 H-thymidine). Plates were harvested in a similar manner, and ^3 H-thymidine incorporation determined as described above.

The next assay relates to murine CD4^+ T cells. Put plainly: Activation of CD4+ T cells by PMA/mB7. The note with it: in words. Type of assay: cell-based, murine (BALB/c). As for the experimental part: (A) Costimulation of T cells with anti-CD3 mAb and mB7. […] (B) Costimulation of T cells with mB7 and PMA. […] All cultures were incubated for 48 hours and pulsed with 1 μCi [ ^3 H] thymidine/well for the last 6 hours of the incubation period to assay for T cell proliferation.
(A) Costimulation of T cells with anti-CD3 mAb and mB7. 2×10^5 purified BALB/c CD4^+ T lymphocytes were stimulated with the indicated concentrations of anti-CD3 mAb in the presence of medium (.largecircle.), 2×10^4 paraformaldehyde-fixed CHO-mB7 cells (.quadrature.), or 2×10^4 paraformaldehyde-fixed CHO-mB7 cells in the presence of 0.1 nM FK506 (.gradient.), 1 nM FK506 (Δ), or 10 nM FK506 ( ). (B) Costimulation of T cells with mB7 and PMA. 2×10^5 purified BALB/c CD4^+ T lymphocytes were stimulated with the indicated concentrations of PMA and either medium (.largecircle.), 2×10^4 paraformaldehyde-fixed CHO-mB7 cells (.quadrature.), or paraformaldehyde-fixed CHO-mB7 cells in the presence of 0.1 nM FK506 (.gradient.), 1 nM FK506 (Δ), or 10 nM FK506 ( ). All cultures were incubated for 48 hours and pulsed with 1 μCi [^3 H] thymidine/well for the last 6 hours of the incubation period to assay for T cell proliferation.
(A) Costimulation of T cells with anti-CD3 mAb and mB7. […]

Broadly, the IC50 is the midpoint of a concentration-inhibition curve. With `C=C1CC(OC)(C(O)C(=O)NC2OCOC3C2OC(CC(O)CO)C(C)(C)C3OC)OC(C)C1C` (stereo not drawn) [Mycalamide A, mycalamide A], the activity at 0.5 µg/mL in assay [1] (120 h, human, 5.0 × 10^-1 μg/ml, read-out: % of Positive Control MLR) came out at 0%. Besides, in assay [1] (120 h, human, 5.0 × 10^-2 μg/ml, read-out: % of Positive Control MLR), the activity at 0.05 µg/mL worked out at 0%. Also, in assay [1] (120 h, human, 5.0 × 10^-3 μg/ml, read-out: % of Positive Control MLR), the activity at 0.005 µg/mL stood at 0%. Moreover, the activity at 0.0005 µg/mL in assay [1] (120 h, human, 5.0 × 10^-4 μg/ml, read-out: % of Positive Control MLR) amounted to 40%. Further, the activity at 50 pg/mL in assay [1] (120 h, human, 5.0 × 10^-5 μg/ml, read-out: % of Positive Control MLR) turned out to be 43%. Moreover, the activity at 5 pg/mL in assay [1] (120 h, human, 5.0 × 10^-6 μg/ml, read-out: % of Positive Control MLR) was 71%. Moreover, the activity at 500 fg/mL in assay [1] (120 h, human, 5.0 × 10^-7 μg/ml, read-out: % of Positive Control MLR) turned out to be 81%. Also, the IC50 in assay [1] (Homo sapiens) came to 0.017 ng/mL. In addition, in the assay with murine CD4^+ T cells, the “effect on PMA/CHO-mB7 stimulation of CD4+ cells” value is given as “blocks activation”.

The values above are taken from patent US5298523A, “Method for treating transplant patients using mycalamide compounds” (priority 1992, dated 1994).
